Entries after “also recorded” stand apart in the source; their conditions may differ. Like-named read-outs stand apart in the source and are kept apart here.
Tests used:
[1] = system: alpha1 adrenoceptor (rabbit aorta); assay: Alpha1 activity in rabbit aorta segments: antagonism of norepinephrine contraction; format: cell-based; settings: for Kb: read-out: KB alpha1 Aorta, norepinephrine agonist
Protocol: Alpha1 activity was determined using the rabbit aorta. Male New Zealand White rabbits (2-4 Kg) were euthanized by cervical concussion. A 4 cm portion of the thoracic aorta was removed and placed in a dish of cold (10° C.) Krebs-Hensleit solution. The tissue was cleaned of fat and connective tissue and cut into segments of approximately 3 mm in length. These segments were suspended in 10 ml tissue baths via hangers constructed of 0.25 mm tungsten wire. One hanger was fixed to a support in the bath, the other attached via silk thread to a force-displacement transducer.
Tissue segments were equilibrated for 2 hours prior to drug testing, during which time basal tension was maintained at 2 gm. Tissues were washed at 30 minute intervals during this equilibration period. The Krebs-Hensleit solution contained cocaine (6 μM) to block neuronal uptake and propranolol (1 μM) to block beta-adrenoceptors. Tissues were usually challenged once with norepinephrine (0.1 μM) during the equilbration period to check for viability.
A cumulative concentration-response curve to norepinephrine was obtained in each aortic segment. Following washout of norepinephrine, the alpha adrenoceptor antagonist to be tested was added to the bath. After the tissue had been in contact with the antagonist for 30-60 minutes, the norepinephrine concentration response-curve was repeated in the presence of antagonist. The tissue was then washed again, and a tenfold higher concentration of antagonist added. Following equilibration (30-60 minutes), a third norepinephrine concentration-response curve was determined in the presence of the antagonist.
(§1) The receptor dissociation constant (KB) for the antagonist was determined using the relationship [formula] (Furchgott, R. F., Handbook of Experimental Pharmacology, eds. Eichler, et al., pp. 283-335 (Springer 1972)). The KB value obtained at each antagonist concentration was averaged to obtain a mean KB for each experiment.
(§2) The results are expressed in nanomolar concentrations. Compound (D) is the prior art compound mentioned above; compounds (E) and (F) are compounds of the present invention.

[2] = biological target: T1, alpha2 receptor (guinea pig left atrium) (Cavia porcellus, UniProt Q60474); assay: Alpha2 activity in isolated, superfused guinea pig left atrium: antagonism of clonidine; format: cell-based; settings: for alpha2 effects in guinea pig atrium (in words): up to the highest tested concentration
T1 construct: The left atrium is separated, dissected free of extraneous tissue; from tissue; host or cells: isolated left atrium of male guinea pig
T1 sequence (Q60474 1-464): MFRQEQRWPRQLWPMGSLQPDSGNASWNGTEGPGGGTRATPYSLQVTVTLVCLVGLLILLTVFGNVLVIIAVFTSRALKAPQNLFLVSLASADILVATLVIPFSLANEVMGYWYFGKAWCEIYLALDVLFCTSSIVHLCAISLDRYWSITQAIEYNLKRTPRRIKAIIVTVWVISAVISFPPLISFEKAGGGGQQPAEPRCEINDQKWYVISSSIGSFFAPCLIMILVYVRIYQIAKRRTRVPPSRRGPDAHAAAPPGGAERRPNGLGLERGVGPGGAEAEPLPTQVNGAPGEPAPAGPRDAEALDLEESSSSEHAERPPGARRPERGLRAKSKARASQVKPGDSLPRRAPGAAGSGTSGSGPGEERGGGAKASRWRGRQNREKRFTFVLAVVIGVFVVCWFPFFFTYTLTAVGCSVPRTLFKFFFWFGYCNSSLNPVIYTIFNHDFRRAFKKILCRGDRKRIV
Protocol: as §1
One of the two systems employed to determine alpha2 activity of the compounds was the isolated, superfused guinea pig left atrium. Briefly, the heart is removed from a pentobarbital-anesthetized male guinea pig. The left atrium is separated, dissected free of extraneous tissue and mounted in a 2 ml superfusion chamber. The tissue is paced at 60 pulse/minute and the sympathetic nerves excited at 6 minute intervals by field stimulation. The response to nerve stimulation is measured as the difference in contractile force between the basal contraction and peak contraction following a nerve stimulation. A concentration-response curve for clonidine (a known alpha2 […]) is prepared by administering increasing concentrations of clonidine following each successive stimulation. The tissue then is superfused for thirty minutes with the alpha-adrenoceptor antagonist to be tested and the clonidine concentration-effect curve is repeated in the presence of antagonist. Data are reported as KB, defined above. Additional details of this test system are found in Hieble, J. P. and R. G. Pendleton, Arch. Pharmacol., 309:217-224 (1979).
as §2

[3] = biological target: T2, alpha2 receptor (guinea pig vas deferens) (Cavia porcellus, UniProt Q60474); assay: Alpha2 activity in isolated, superfused guinea pig vas deferens: stimulated/basal 3H-norepinephrine release; format: cell-based; settings: for alpha2 effects in guinea pig vas deferens (in words): up to the highest tested concentration
T2 construct: both vasa deferentia were removed and placed in a dish; from tissue; host or cells: isolated vas deferens of male guinea pigs
T2 sequence (Q60474 1-464): T1 sequence (Q60474 1-464)
From the text: The second system utilized in determining the alpha2 activity of the compounds of interest is the isolated, superfused guinea pig vas deferens (Vas Def). From male (300-600 g) guinea pigs sacrificed by administration of a lethal amount of pentobarbital, both vasa deferentia were removed and placed in a dish containing a cold nutrient-buffer solution. The tissue was cleaned and the fibrous sheath removed gently. The ends were trimmed to yield segments about 4 cm in length and 4-0 silk ties attached to each end. The vasa deferentia then were incubated in 10 ml of nutrient-buffer solution containing […] of ^3 H-norepinephrine. Tissue was incubated at 37° C. for 30 minutes with continuous gassing with 95% O2, 5% CO2. After incubation, the tissue was mounted in a superfusion apparatus constructed of 3 mm ID glass tubing. One end was connected, via the silk tie, to a plug constructed of silicone rubber and polyethylene with a platinum wire hook. The other tie was connected to a force-displacement transducer. About 1 g of tension was applied to the tissue, and superfusion with nutrient-buffer solution initiated at 2 ml/minute, using a peristaltic pump. The chambers had platinum electrodes fused through the glass at the top and bottom to allow field stimulation of the tissue.
Before compound testing, tissues were equilibrated for at least 2 hours, during which time stimulation (3 Hz, 0.7 msec pulse duration, 80 V) was applied for 2 minutes at 30 minute intervals. Following this equilibration period, three control stimulations were performed. For each stimulation, two effluent samples were collected directly into 20 ml scintillation vials; one prior to, and one during field stimulation. The basal sample was collected during a 2 minute interval immediately prior to stimulation. The stimulation sample was collected beginning 30 seconds after initiation of stimulation, and continuing for 30 seconds following termination of the field stimulation. This lag period is to allow for the dead space in the superfusion chamber. This collection-stimulation procedure was repeated at 20 minute intervals. Following the third control collection, compound was added into the superfusion flow; 20 minutes later the collection-stimulation was repeated in the presence of compound. Compound concentration was increased ten-fold following each stimulation, and the cycle repeated until four drug concentrations had been tested. A final stimulation-collection was performed after termination of compound superfusion.
Ten ml of standard scintillation fluid (Aquasol-II) was added to all samples, and the DPM values were determined on a beta-scintillation counter. The stimulated/basal release ratio was determined for each pair. The stimulated/basal ratios for the three initial control collections were averaged to obtain a mean control ratio. The compound effect was determined by comparing the stimulated/basal ratio in the presence of increasing compound concentration to the mean control ratio. The EC50 was defined as the compound concentration producing a 50% increase in the stimulated/basal release ratio.
as §2

[4] = system: alpha3 receptor (dog saphenous vein); assay: Alpha3 activity in dog saphenous vein: shift of BHT-920 dose-response curve; format: cell-based; settings: for antagonism in the alpha3 test system (in words) / Kb: dog saphenous vein; for separation in the concentrations producing alpha2 and alpha3 effects: guinea pig vas deferens (alpha2) vs dog saphenous vein (alpha3); for Kb: read-out: KB alpha3 DSV, BHT-920 agonist
Protocol: as §1
The dog saphenous vein (DSV) was used as the test system for measuring activity of the compounds at the alpha3 receptor. This test system has been shown a suitable preparation in which to characterize postsynaptic alpha2 (alpha3) adrenoceptors. Sullivan, A. T. and G. M. Drew, Arch. Pharmacol. 314:249-58 (1980). This test system is prepared by removing the lateral saphenous vein from an anesthetized dog and cutting the vein into segments of 10 mm in length. Each segment then is cut into a helical strip and mounted, in a tissue bath, between a stationary tissue holder and transducer with which isometric contractions are recorded as changes in grams of tension. Additional details of this methodology are found in Fowler, P. J., et al., J. Pharmacol. Exp. Ther. 229:712-18 (1984).
The alpha3 activity of the compounds of interest is determined by measuring shifts in the dose-response curve of a specific agonist induced by the tested compounds. The alpha2 specific agonist, BHT-920, was used in testing the compounds listed in Table I. Data are reported as KB, defined above.
as §2

[5] = Mean arterial blood pressure and heart rate in spontaneously hypertensive rats; format: in vivo; settings: 1.5 mg/kg intravenously
Protocol: Further, spontaneously hypertensive rats were dosed, intravenously, at a dose of 1.5 mg/kg, with a solution of one of the compounds of the invention (Compound E, Table I) and mean arterial blood pressure was monitored for 45 minutes using indwelling cannulae positioned in the tail arteries. At the end of the 15 minute infusion, systolic and diasystolic pressures had reached their nadirs and were each approximately 30 to 35 mm Hg below vehicle-treated controls. Thirty minutes following cessation of the infusion, systolic and diasystolic pressures remained approximately 20 mm Hg less than the controls. Also, heart rate was measured during the period blood pressure was monitored.

[6] = thirty minutes following cessation of the infusion

## CC(C)=CCOc1ccc(Cl)c2c1CCN(C)CC2 [Compound E, 9-(3-methyl-2-butenyloxy)-6-chloro-3-methyl-2,3,4,5-tetrahydro-1H-3-benzazepine]
[1]
  alpha1 activity compared among compounds D, E and F (in words): similar
  Kb: 150 nM
[2]
  Kb: > 10000 nM
  alpha2 effects in guinea pig atrium (in words): no alpha2 effects
[3]
  EC50: > 10000 nM
  alpha2 effects in guinea pig vas deferens (in words): no alpha2 effects
[4]
  antagonism in the alpha3 test system (in words): potent antagonists
  separation in the concentrations producing alpha2 and alpha3 effects: ≥ 200 fold
  Kb: 37 nM
[5]; heart rate measured during blood pressure monitoring
  reflex tachycardia (heart rate): No statistically significant reflex tachycardia
[5]; [6]
  diastolic pressure less than controls, after infusion: approximately 20 mm Hg
  systolic pressure less than controls, after infusion: approximately 20 mm Hg

## C=CCOc1ccc(Cl)c2c1CCN(C)CC2.Cl [D, 9-allyloxy-6-chloro-3-methyl-2,3,4,5-tetrahydro-1H-3-benzazepine hydrochloride, reference compound]
[1]
  alpha1 activity compared among compounds D, E and F (in words): similar
  Kb: 150 nM
[2]
  Kb: 903 nM
  alpha2 effects in guinea pig atrium (in words): significant activity at the alpha2 receptor
[3]
  EC50: 224 nM
  alpha2 effects in guinea pig vas deferens (in words): significant activity at the alpha2 receptor
[4]; alpha3 vs alpha2, hydrochloride
  alpha3 adrenoceptor selectivity vis-a-vis alpha2 (in words): does not approach the high degree of specificity exhibited by the presently invented compounds; also recorded: insignificant alpha3 -adrenoceptor selectivity
[4]
  separation in the concentrations producing alpha2 and alpha3 effects: four
  Kb: 54 nM

## CC=COc1ccc(Cl)c2c1CCN(C)CC2 [F, 9-(1-propenyloxy)-6-chloro-3-methyl-2,3,4,5-tetrahydro-1H-3-benzazepine]
[1]
  alpha1 activity compared among compounds D, E and F (in words): similar
  Kb: 31 nM
[2]; guinea pig left atrium, clonidine, read-out: KB alpha2 Atrium
  Kb: > 1000 nM
[2]
  alpha2 effects in guinea pig atrium (in words): no alpha2 effects
[3]; guinea pig vas deferens, concentration producing a 50% increase in the stimulated/basal release ratio, read-out: EC50 alpha2 Vas Def
  EC50: > 10000 nM
[3]
  alpha2 effects in guinea pig vas deferens (in words): no alpha2 effects
[4]
  antagonism in the alpha3 test system (in words): potent antagonists
  Kb: 100 to 200 nM
